Data on 14 compounds can be found in patent publication US8193377B2, “(−)-epigallocatechin gallate derivatives for inhibiting proteasome” (The Hong Kong Polytechnic University, priority 2004, dated 2012).

Assay [1] concerns the target 20S prokaryotic proteasome (UniProt Q9P992). The assay is described as follows: Table 2: effects of tea polyphenols on 20S prokaryotic proteasome activities. Type of assay: biochemical. Particulars: Table 2, This work. The protocol:
To further examine the effects of B-ring —OH group deletion on proteasome-inhibitory and cell death-inducing abilities, we synthesized several novel EGCG analogs with eliminated —OH groups on the B-ring as well as their putative prodrugs, the peracetate-protected counterparts. By using a purified 20S proteasome and a chymotrypsin-like fluorogenic substrate, the proteasome-inhibitory effects of the following unprotected polyphenol analogs are determined: […]

In assay [2] the target is T1, purified rabbit 20s proteasome (Oryctolagus cuniculus, UniProt G1T4Q9).
T1 construct: purchased Boston Biochem (Cambridge, Mass.)
T1 sequence (G1T4Q9 1-263): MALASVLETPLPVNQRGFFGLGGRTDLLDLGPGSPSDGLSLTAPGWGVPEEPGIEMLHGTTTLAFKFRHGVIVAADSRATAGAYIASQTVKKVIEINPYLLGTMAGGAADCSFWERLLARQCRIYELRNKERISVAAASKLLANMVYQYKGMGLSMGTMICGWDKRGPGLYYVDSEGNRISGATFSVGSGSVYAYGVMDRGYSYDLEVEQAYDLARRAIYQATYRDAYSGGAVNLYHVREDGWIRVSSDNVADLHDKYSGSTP
The assay is described as follows: Inhibition of chymotrypsin-like activity of purified 20S proteasome. Type of assay: biochemical. As to the method:
Measurement of the chyrnotrypsin-like activity of the 20s proteasome was performed by incubating 0.5 μg of purified rabbit 20s proteasome with 40 μM fluorogenic peptide substrate, Suc-Leu-Leu-Val-Tyr-AMC, with or without various concentrations of natural and synthetic tea polyphenols as described previously (Nam S et. al.).
In order to test this hypothesis, proteasome activity was tested both in vitro and in intact Jurkat T cells with either 1 or (−)-EGCG (as a positive control). First, 1 and commercial (−)-EGCG were dissolved in DMSO and their effects on the chymotrypsin-like activity of purified 20S proteasomes were measured. […] In contrast, (−)-EGCG at 10 μM inhibited 80-90% of the proteasomal chymotrypsin-like activity. Therefore, as predicted, 1 outside of a cellular system is not a proteasome inhibitor.
Up to 25 μM of all protected and unprotected compounds were incubated with a purified 20s proteasome and a fluorogenic substrate for chyrnotrypsin activity for 30 min. The half-maximal inhibitory concentration or IC50 was then determined. […] This is consistent with the results above.

The target of assay [3] is 20S prokaryotic proteasome (UniProt Q9P992). Particulars: Table 2, Reference a (Smith et al. 2004), cited from earlier work.
Chain of 20S prokaryotic proteasome (Q9P992 whole entry): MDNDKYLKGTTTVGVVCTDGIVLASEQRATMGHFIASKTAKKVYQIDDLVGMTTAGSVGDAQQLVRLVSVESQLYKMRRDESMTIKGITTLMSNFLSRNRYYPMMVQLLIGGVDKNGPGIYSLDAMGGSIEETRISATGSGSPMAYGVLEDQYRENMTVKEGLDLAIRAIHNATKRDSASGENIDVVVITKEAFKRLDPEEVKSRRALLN
The target of assay [4] is T2, proteasomal chymotrypsin-like activity in Jurkat T cells (Homo sapiens, UniProt P28074).
T2 construct: measurement of the proteasomal chymotrypsin-like activity in the prepared lysates; endogenous in cells; host or cells: Jurkat T cells (human leukemia)
T2 sequence (P28074 60-263): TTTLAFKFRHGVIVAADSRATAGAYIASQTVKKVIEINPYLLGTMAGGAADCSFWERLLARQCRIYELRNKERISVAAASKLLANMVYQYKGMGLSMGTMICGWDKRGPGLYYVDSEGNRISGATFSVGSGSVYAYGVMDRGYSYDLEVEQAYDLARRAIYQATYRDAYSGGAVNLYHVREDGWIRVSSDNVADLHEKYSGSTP
The assay is described as follows: Proteasomal chymotrypsin-like activity in intact Jurkat T cells / their lysates. Particulars: 25 μM, 4 and 24 h. Type of assay: cell-based. The protocol:
VA-13 or WI-38 cells were grown in 24 well plates (2 ml/well) to 70-80% confluency, followed by 24 h treatment with […] (−)-EGCG, 2, or 2a. […] Suc-Leu-Leu-Val-Tyr-AMC substrate was then added for 2.5 h at 37° C. and the chyrnotrypsin-like activity was measured as described above. Alternatively, cells were treated with each compound at 25 μM for 4 or 24 h, and harvested and lysed. Suc-Leu-Leu-Val-Tyr-AMC (40 μM) was then incubated with the prepared cell lysates for 2.5 h and the chymotrypsin-like activity was measured as described above.
If 1 converts to (−)-EGCG inside the cells, proteasome inhibition in vivo should be detected. To examine this possibility, human Jurkat cells was treated with 25 μM of 1 or (−)-EGCG for 12 or 24 h, followed by measurement of proteasome activity by using a chymotrypsin-like specific fluorogenic substrate in intact cells (FIG. 6a) or Western blot for ubiquinated proteins (FIG. 6b). […] To analyze the intracellular level of polyubiquitinated proteins, cells were lysed after 12 hours incubation and subjected to Western blotting. […] It is possible that the amount of EGCG generated from 1, and thus its biological activity inside the cells depends on a combination of factors: the relative permeability of 1 into the cells, the amount of esterase enzymes and the amount of anti-oxidants that may be present in the cells at any time.
To determine whether the unprotected and protected polyphenol analogs could inhibit the proteasomal activity in intact cells, leukemia Jurkat T cells were treated with each compound at 25 μM for 4 and 24 h, followed by collection of cell pellets and measurement of the proteasomal chymotrypsin-like activity in the prepared lysates.

The subject of assay [5] is VA-13 cells. The assay is described as follows: Immunostaining of apoptotic cells with anti-cleaved PARP-FITC. Particulars: 25 μM, 24 h. Type of assay: cell-based, human. The protocol: Immunostaining of apoptotic cells was performed by addition of a FITC-conjugated polyclonal antibody that recognizes cleaved poly(ADP-ribose) polymerase (PARP) and visualized on an Axiovert 2 5 (Zeiss; Thornwood, N.Y.) microscope. Cells were grown to about 80% confluency in 60 mm dishes. VA-13 cells were then treated with VP-16, 2, or 2a (25 μM) for 24 h. Following treatment, both suspension and adhering cells were collected and washed twice in PBS pH 7.4. The cells were washed between all steps listed below and all washes are 1 min duration with PBS. Cells were then fixed in ice-cold 70% ethanol, permeabilized in 0.1% Triton-X-100 and blocked for 30 min in 1% bovine serum albumin (BSA) at room temperature. Incubation with the primary FITC-conjugated-p85/PARP antibody was for 30 min at 4° C. in the dark with mild shaking. Cell suspension was then transferred to glass slides in the presence of Vector Shield mounting medium with DAPI. Images were captured using AxioVision 4.1 and adjusted using Adobe Photoshop 6.0 software. Cell death was quantified by counting the number of apoptotic cells over the total number of cells in the same field. Data are mean of duplicate experiments ±SD.
It has been shown that proteasome inhibition can induce apoptosis in a wide variety of cancer cells, but not in normal, non-transformed cells (An B et al). Jurkat T cells are treated with 25 μM of each of the selected polyphenols and their protected analogs for 24 h to investigate their abilities to induce apoptotic cell death. […] The unprotected 2 induced much less apoptosis (21%), while 25 μM VP-16, used as a positive control, induced 92% apoptosis (FIGS. 10C and 10D). Counterstain with DAPI, which binds to the minor groove in A-T rich regions of DNA, was decreased drastically in apoptotic cells (FIG. 10C), consistent with DNA fragmentation in late stage apoptosis.

In assay [6] the test system is ubiquitinated proteins, Bax, p27, IκBα in Jurkat T cells. Nature of the assay: Western blot for ubiquitinated proteins and proteasome targets (Bax, p27, IκBα) in Jurkat T cells. Particulars: 25 μM, up to 8 h. Type of assay: cell-based, human. As to the method:
Whole cells extracts were prepared as described previously (An B, Goldfarb R H, Siman R, Dou Q P. Novel dipeptidyl proteasome inhibitors overcome Bc1-2 protective function and selectively accumulate the cyclin-dependent kinase inhibitor p27 and induce apoptosis in transformed, but not normal, human fibroblasts. Cell Death Differ 1998; 5: 1062-75.). Analysis of Bax, IKBa, p27, PAW, and ubiquitinated protein expression were performed using monoclonal or polyclonal antibodies according to previously reported protocols (An B et. al.).
To determine what effects the synthetic tea analogs had on the proteasome in vivo, Jurkat cells were treated with 25 μM of each synthetic compound for either 4 or 24 h, with (−)-EGCG as a control (FIGS. 9A and 9B). […] This is consistent with the idea that protected analogs are potent inhibitors of the proteasome at an earlier time point and that after 24 h of treatment the ubiquitinated proteins are being depleted by deubiquitinating enzymes. […] The putative ubiquitinated IκBα band is still found in cells treated with 2a, 3a, and 4a (FIG. 9B, Lanes 9, 5, 7). The presumed ubiquinated IκBα band is now absent in the 24 h treatment, possibly due to deubiquitination (FIG. 9B). Actin was used as a loading control in this experiment.
The pro-apoptotic protein Bax and the cyclin-dependent kinase inhibitor p27 are natural proteasome targets. If the peracetate-protected polyphenols inhibit the intact proteasome activity, we would expect accumulation of Bax and p27 in these cells. To test this idea, Jurkat T cells were treated with both protected and unprotected compounds and lysates were analyzed by Western blot using specific antibodies to Bax and p27 (FIG. 15). After 4 h of treatment, the peracetate-protected analogs 24* and 19*, but not their unprotected analogs, were able to increase accumulation of both Bax (by 3- and 2.5-fold, respectively) and p27 (6- and 11-fold, respectively) (FIG. 15A). After 24 h treatment, Bax levels were increased in cells treated with all of the peracetate-protected compounds (13-, 12-, 40- and 36-fold, respectively, by 24*, 19*, 21* and 23*).

Where [7] appears, read: Suc-Leu-Leu-Val-Tyr-AMC, 2 h incubation, Table 1, read-out: IC50 (μM), unprotected.
Where [8] appears, read: up to 25 μM, 30 min incubation, read-out: IC50.

Where two headings read alike, the source gives them in different places.

As usually defined, the IC50 is the concentration that inhibits the measured activity by half. In assay [1], `O=C(OC1Cc2c(O)cc(O)cc2OC1c1ccc(O)cc1)c1cc(O)c(O)c(O)c1` (centres unmarked) [#m] displayed an IC50 of 4.56 µM. Turning to `O=C(O[C@H]1Cc2c(O)cc(O)cc2O[C@@H]1c1ccc(O)c(O)c1)c1ccc(O)cc1` [Compound 11, (+)-(2R,3S)-5,7-dihydroxy-2-(3,4-dihydroxyphenyl)chroman-3-yl 4-hydroxybenzoate], the IC50 in assay [2] (setting [7]) was 7.7 µM. As to `O=C(O[C@H]1Cc2c(O)cc(O)cc2O[C@@H]1c1ccc(O)c(O)c1)c1cc(O)c(O)c(O)c1` [(+)-CG, (+)-(2R,3S)-5,7-dihydroxy-2-(3,4-dihydroxyphenyl)chroman-3-yl 3,4,5-trihydroxybenzoate], the IC50 in assay [3] is 0.73 µM.

Take `O=C(OC1Cc2c(O)cc(O)cc2OC1c1ccc(O)c(O)c1)c1cc(O)c(O)c(O)c1` (single isomer, unassigned; (+)) [(+)-ECG]: the IC50 in assay [3] (read-out: IC50) is 0.73 µM.

With `O=C(OC1Cc2c(O)cc(O)cc2OC1c1ccc(O)c(O)c1)c1cc(O)c(O)c(O)c1` (single isomer, unassigned; (-)) [(−)-CG], the IC50 in assay [3] was 0.75 µM.

Regarding `O=C(O[C@H]1Cc2c(O)cc(O)cc2O[C@H]1c1ccccc1)c1cc(O)c(O)c(O)c1` [Compound 15, (+)-(2S,3S)-5,7-dihydroxy-2-phenylchroman-3-yl 3,4,5-trihydroxybenzoate], half-maximal inhibition in assay [1] (IC50) was put at 4.56 µM. Moreover, in assay [4], the “proteasome inhibition in intact Jurkat T cells” value is recorded as “moderate potency”.

With `O=C(O[C@@H]1Cc2c(O)cc(O)cc2O[C@@H]1c1ccc(O)c(O)c1)c1ccc(O)cc1` [Compound 12, (−)-(2R,3R)-5,7-dihydroxy-2-(3,4-dihydroxyphenyl)chroman-3-yl 4-hydroxybenzoate], the IC50 in assay [2] (setting [7]) was 5.99 µM. Consider `COc1cc([C@@H]2c3cc4c(cc3[C@@H](O[C@@H]3O[C@@H]5CO[C@@H](C)O[C@H]5[C@H](O)[C@H]3O)[C@H]3COC(=O)[C@H]23)OCO4)cc(OC)c1O` [VP-16, reference compound], for which, in assay [5], the “apoptotic cells (p85 cleaved PARP)” value was determined as 92%. For the compound `O=C(O[C@H]1Cc2c(O)cc(O)c(Cc3ccccc3)c2O[C@H]1c1ccc(O)c(O)c1)c1cc(O)c(O)c(O)c1` [#1, (+)-(2S,3S)-5,7-dihydroxy-8-benzyl-2-[3,4-dihydroxy-phenyl]chroman-3-yl 3,4,5-trihydroxybenzoate], the IC50 in assay [1] turned out to be 0.39 µM. As to `O=C(O[C@@H]1Cc2c(O)cc(O)cc2O[C@@H]1c1ccc(O)cc1)c1ccc(O)cc1` [Compound 10, (−)-(2R,3R)-5,7-dihydroxy-2-(4-hydroxyphenyl)chroman-3-yl 4-hydroxybenzoate], the IC50 in assay [2] (setting [7]) amounted to 8.51 µM. Also, in assay [4], the “proteasome inhibition in intact Jurkat T cells” value is listed as “moderate potency”. Take `O=C(O[C@@H]1Cc2c(O)cc(O)cc2O[C@@H]1c1ccc(O)c(O)c1)c1cc(O)c(O)c(O)c1` [(−)-ECG, (−)-epicatechin-3-gallate]: in assay [3], the IC50 is 0.58 µM. Regarding `O=C(OC1Cc2c(O)cc(O)c(Cc3ccccc3)c2OC1c1ccc(O)c(O)c1)c1cc(O)c(O)c(O)c1` (centres unmarked) [Compound 16], the IC50 in assay [2] (setting [7]) came to 0.59 µM. As to `O=C(O[C@@H]1Cc2c(O)cc(O)cc2O[C@H]1c1cc(O)c(O)c(O)c1)c1ccc(O)cc1` (relative stereo) [Compound 3, (2S*,3R*)-trans-5,7-Bis(hydroxy)-2-[3,4,5-tris(hydroxy)phenyl]chroman-3-yl 4-(hydroxy)benzoate], in assay [2] (setting [8]), the IC50 lay in the range of 14 to 15 µM. In the case of `O=C(O[C@@H]1Cc2c(O)cc(O)cc2O[C@H]1c1cc(O)c(O)c(O)c1)c1cc(O)cc(O)c1` (relative stereo) [Compound 4, (2S*,3R*)-trans-5,7-Bis(hydroxy)-2-[3,4,5-tris(hydroxy)phenyl]chroman-3-yl 3,5-bis(hydroxy)benzoate], in assay [2] (setting [8]), the IC50 lay within 14 to 15 µM. The “time course of ubiquitinated protein accumulation” value in assay [6] was “highest expression after 8 hours”.
